Here are results for one compound from patent US9980937B2, “Therapeutic agent for Alzheimer's disease” (NAGASAKI UNIVERSITY, priority 2014, dated 2018).

One test has as its target T1, β-secretase (Homo sapiens, UniProt P56817).
T1 construct: endogenous in cells; host or cells: APP-H4 cells (culture supernatant analysed)
The experiment in a line: β-secretase activity (APPsβ, western blot). Type of test: cell-based. Particulars: APP-H4 culture supernatant, APPsβ (FIG. 2). The method, then: (§1) APP-H4 cells were seeded to a 6-well plate at a density of 12×10^4 cells/1.5 mL, and cultured in Dulbecco's modified Eagle's medium (DMEM; Nacalai Tesque, Inc.) added with 10% fetal bovine serum (FBS; Equitech-Bio, Inc. [Kerrville, Tex., USA]), 100 U/mL penicillin+100 μg/mL streptomycin (Nacalai Tesque, Inc.). After culture for 24 hr, the culture supernatant was removed, and the medium was exchanged with a medium with reduced use amount of serum, Opti-MEM (registered trade mark) I Reduced Serum Medium (Life Technologies Corporation, Carlsbad, Calif., USA) (1 mL). A polyphenol derivative (1 μL) to be the test target was added, and the mixture was further cultured for 48 hr. After culture, the culture supernatant was recovered in a tube (total amount 1.5 mL), centrifuged at 4,000×g/4° C./10 min to remove dead cells, and the supernatant (800 μL) was placed in a new tube. The culture supernatant was preserved at −80° C. before sample preparation. The cells were washed twice with ice-cooled phosphate-buffered saline (PBS). Thereafter, the cells were scraped from the plate using a Cell Scraper. The cells were recovered in a 1.5 mL tube and centrifuged at 4,000×g/4° C./10 min. The supernatant was removed and the cells were preserved at −80° C. before sample preparation. The frozen cells were lysed in 40 μL of solubilization buffer containing 1% Triton X-100, protease inhibitor cocktail Complete™ EDTA-free (Roche) and 50 mM Tris-HCl on ice. The cell lysate was incubated on ice for 60 min, centrifuged at 4° C., 21,900×g for 30 min, and the supernatant was recovered and used as a solubilization cell extract. […]
(§2) The signal intensity of the band was quantified using a densitometer LAS-4000 (GE Healthcare UK Ltd.) and image analysis software Science Laboratory 2003 Image Gauge Version 4.23 (Fujifilm Holdings Corporation, Tokyo, Japan). […]
Background: In western blotting, separated proteins are transferred to a membrane and probed.

In test [1] the test system is neprilysin, α-secretase, β-secretase. Put plainly: overall conclusion on modulation of neprilysin, α-secretase and β-secretase (Example 1). Type of test: cell-based, human. Particulars: conclusion from the results of Example 1. The method, then: (§3) APP-H4 cells were seeded to a 6-well plate at a density of 12×10^4 cells/1.5 mL, and cultured in Dulbecco's modified Eagle's medium (DMEM; Nacalai Tesque, Inc.) added with 10% fetal bovine serum (FBS; Equitech-Bio, Inc. [Kerrville, Tex., USA]), 100 U/mL penicillin+100 μg/mL streptomycin (Nacalai Tesque, Inc.). After culture for 24 hr, the culture supernatant was removed, and the medium was exchanged with a medium with reduced use amount of serum, Opti-MEM (registered trade mark) I Reduced Serum Medium (Life Technologies Corporation, Carlsbad, Calif., USA) (1 mL). A polyphenol derivative (1 μL) to be the test target was added, and the mixture was further cultured for 48 hr. After culture, the culture supernatant was recovered in a tube (total amount 1.5 mL), centrifuged at 4,000×g/4° C./10 min to remove dead cells, and the supernatant (800 μL) was placed in a new tube. The culture supernatant was preserved at −80° C. before sample preparation. The cells were washed twice with ice-cooled phosphate-buffered saline (PBS). Thereafter, the cells were scraped from the plate using a Cell Scraper. The cells were recovered in a 1.5 mL tube and centrifuged at 4,000×g/4° C./10 min. The supernatant was removed and the cells were preserved at −80° C. before sample preparation. The frozen cells were lysed in 40 μL of solubilization buffer containing 1% Triton X-100, protease inhibitor cocktail Complete™ EDTA-free (Roche) and 50 mM Tris-HCl on ice. The cell lysate was incubated on ice for 60 min, centrifuged at 4° C., 21,900×g for 30 min, and the supernatant was recovered and used as a solubilization cell extract.
The neprilysin-dependent neutral endopeptidase activity of the cell extract was measured fluorescence quantitatively by an indirect coupled enzyme assay method. As a neutral endopeptidase substrate, succinyl-Ala-Ala-Phe-7-amino-4-methylcoumarin (suc-AAF-AMC) (1-1315; Bachem) was used. Total 50 μL of the reaction mixture was prepared such that the final concentration was substrate 0.1 mM suc-AAF-AMC, protein in the cell extract 1-6 μg, 100 mM MES buffer (pH 6.5). With the time of addition of the substrate as the start of the reaction, the mixture was reacted at 37° C. for 1 hr, and Phe-AMC was cut out from the substrate by neutral endopeptidase. Then, to the reaction mixture was added a solution (2.5 μL) containing 0.1 mg (0.4 unit equivalent)/mL leucine aminopeptidase (L-5006; Sigma-Aldrich), and 0.2 mM phosphoramidon (4082; Peptide Institute). The mixture was reacted at 37° C. for 30 min, and Phe (phenylalanine) residue was cut out from Phe-AMC by aminopeptidase. Using microplate spectrometer Infinite M-1000 (Tecan), the fluorescence intensity of free AMC was measured by measuring at an excitation wavelength 390 nm and a fluorescence wavelength 460 nm on a half-well size 96-well black plate (#3695; Corning). The neprilysin-dependent neutral endopeptidase activity was determined based on a decrease in the activity due to 10 μM thiorphan (T-6031; Sigma-Aldrich) as a neprilysin specific inhibitor.
After thawing from −80° C., the aforementioned culture supernatant was mixed with 6×SDS-polyacrylamide gel electrophoresis (SDS-PAGE) sample buffer (Nacalai Tesque, Inc.) at a ratio of 5:1, boiled for 5 min, and used as a detection sample of APPsα which is a metabolite of APP by α-secretase and APPsβ which is a metabolite of APP by β-secretase in western blot analysis. […]

The test system of test [2] is neprilysin. Put plainly: neprilysin-dependent neutral endopeptidase activity of APP-H4 cell extract (suc-AAF-AMC coupled enzyme assay). It is filed as cell-based, human. Conditions: APP-H4 cells, 48 hr, 1 or 10 μM; activity without polyphenol derivative = 1 (FIG. 1). The method, then: as §3
The total protein concentration of the cell extract was determined by a BCA protein assay kit (Takara) by using BSA as the standard solution. The final concentration of the test compound used was 1 μM or 10 μM, and quantification was performed using each solvent as a control.
The neprilysin-dependent neutral endopeptidase activity of the cell extract was measured fluorescence quantitatively by an indirect coupled enzyme assay method. […] Total 50 μL of the reaction mixture was prepared such that the final concentration was substrate 0.1 mM suc-AAF-AMC, protein in the cell extract 1-6 μg, 100 mM MES buffer (pH 6.5). With the time of addition of the substrate as the start of the reaction, the mixture was reacted at 37° C. for 1 hr, and Phe-AMC was cut out from the substrate by neutral endopeptidase. […] The mixture was reacted at 37° C. for 30 min, and Phe (phenylalanine) residue was cut out from Phe-AMC by aminopeptidase.

A further test deals with α-secretase. Put plainly: α-secretase activity (APPsα, western blot). It is filed as cell-based, human. Particulars: APP-H4 culture supernatant, APPsα (FIG. 2). The method, then:
as §1, with “Scraper.” for “Scraper. The cells were recovered in a 1.5 mL tube and centrifuged at 4,000×g/4° C./10 min. The supernatant was removed and the cells were preserved at −80° C. before sample preparation. The frozen cells were lysed in 40 μL of solubilization buffer containing 1% Triton X-100, protease inhibitor cocktail Complete™ EDTA-free (Roche) and 50 mM Tris-HCl on ice. The cell lysate was incubated on ice for 60 min, centrifuged at 4° C., 21,900×g for 30 min, and the supernatant was recovered and used as a solubilization cell extract.”
as §2

The test system of another test is APP. Put plainly: extracellularly secreted APPsα/APPsβ ratio (western blot). Conditions: APP-H4 culture supernatant (FIG. 2). It is filed as cell-based, human. The method, then: as §3
After thawing from −80° C., the aforementioned culture supernatant was mixed with 6×SDS-polyacrylamide gel electrophoresis (SDS-PAGE) sample buffer (Nacalai Tesque, Inc.) at a ratio of 5:1, boiled for 5 min, and used as a detection sample of APPsα which is a metabolite of APP by α-secretase and APPsβ which is a metabolite of APP by β-secretase in western blot analysis.
The PVDF membrane after transfer was washed with a wash buffer and immersed in a blocking buffer to prevent non-specific binding of the primary antibody, and a blocking reaction was performed at room temperature for 1 hr. Thereafter, it was reacted with a primary antibody (APPsα, anti-human APPsα mouse monoclonal antibody (2B3, Immuno-Biological Laboratories Co., Ltd., Gunma, Japan) (3 μg/mL); APPsβ, anti-APPsβ, rabbit polyclonal antibody, 1 μg/mL) to perform an antigen-antibody-reaction at 4° C. for not less than 16 hr. […]
as §2

The test system of test [3] is neprilysin. The experiment in a line: neprilysin expression amount at protein level (western blot, APP-H4 cells). Particulars: 48 hr, standardized to β-actin (FIG. 2). It is filed as cell-based, human. The method, then:
as §3
The aforementioned cell extract was mixed with 6×SDS-polyacrylamide gel electrophoresis (SDS-PAGE) sample buffer (Nacalai Tesque, Inc.) at a ratio of 5:1, boiled for 5 min, and used as a detection sample of neprilysin, α-secretase and β-secretase proteins.
The PVDF membrane after transfer was washed with a wash buffer and immersed in a blocking buffer to prevent non-specific binding of the primary antibody, and a blocking reaction was performed at room temperature for 1 hr. […] The PVDF membrane after the reaction was washed with the wash buffer and the secondary antibody (horseradish peroxidase conjugated anti-mouse or anti-rabbit IgG (1:10,000; GE Healthcare UK Ltd.)) corresponding to the primary antibody was reacted at room temperature for 1 hr and detection was carried out using the ECL Select Western Blotting Detection Kit (GE Healthcare UK Ltd.).
The signal intensity of the band was quantified using a densitometer LAS-4000 (GE Healthcare UK Ltd.) and image analysis software Science Laboratory 2003 Image Gauge Version 4.23 (Fujifilm Holdings Corporation, Tokyo, Japan).

T1 sequence (P56817 46-501): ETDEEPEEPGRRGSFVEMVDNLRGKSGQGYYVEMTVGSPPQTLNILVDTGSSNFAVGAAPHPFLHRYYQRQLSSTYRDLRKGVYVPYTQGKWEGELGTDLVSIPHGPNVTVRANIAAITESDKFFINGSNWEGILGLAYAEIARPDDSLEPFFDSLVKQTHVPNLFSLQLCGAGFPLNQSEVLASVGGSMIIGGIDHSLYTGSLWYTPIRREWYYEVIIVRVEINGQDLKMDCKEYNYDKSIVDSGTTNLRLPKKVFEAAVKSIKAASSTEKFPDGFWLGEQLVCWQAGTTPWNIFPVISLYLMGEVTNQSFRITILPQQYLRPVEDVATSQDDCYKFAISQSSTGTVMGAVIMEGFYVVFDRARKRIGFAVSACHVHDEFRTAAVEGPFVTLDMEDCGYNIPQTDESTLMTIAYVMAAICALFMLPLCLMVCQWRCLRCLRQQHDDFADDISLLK

As to `C/C(=C\Cc1c(C(=O)O[C@@H]2Cc3c(O)cc(O)cc3O[C@@H]2c2cc(O)c(O)c(O)c2)cc(O)c(O)c1O)CCCC(C)CCCC(C)CCCC(C)C` (stereo partly drawn) [NUP-18], the “β-secretase activity, remaining relative to control” value at β-secretase is reported as “about 43 % that of control”. Moreover, the “modulator class (neprilysin / α-secretase / β-secretase)” value in test [1] was “triple modulator”. Besides, the “neprilysin activity potentiating action” value in the test on neprilysin [2] is on record as “about 3.8 times that of control”. In addition, in the test on α-secretase, the α-secretase activity result is on record as “about 1.2 times that of control”. The “extracellularly secreted APPsα/APPsβ ratio” value in the test with APP is given as “about 2.1 times that of control”. Also, in the test on neprilysin [3], the “expression amount of neprilysin at the protein level” value is reported as “about 3.8 times that of control”.
